Reference: article PMC9519552, “Activation of the human insulin receptor by non-insulin-related peptides” (Nature Communications, 2022)
Where two headings read alike, the source gives them in different places. Positions of bridges follow the written chain, without caps; N, C: chain ends. Residues, ends and D or L forms follow the SMILES beside them.

Experiments:
[1] = target: T1, human holoIR-A over-expressed in HEK293 cells (Homo sapiens, UniProt P06213); assay: Inhibition of hIR phosphorylation by peptides, co-incubated with BHI at its EC50 (ELISA); type: cell-based; details: for hIRA Phosph IC50 Run 1 / hIRA Phosph IC50 Run 2 / hIRA Phosph IC50 Run 3: inhibition of insulin-stimulated phosphorylation; for hIRA Phosph IC50 Run 1: BHI at its EC50, run 1; for hIRA Phosph IC50 Run 2: BHI at its EC50, run 2; for hIRA Phosph IC50 Run 3: BHI at its EC50, run 3; for IC50: read-out: hIRA Phosph IC50 Mean
T1 construct: expressed in transfected cells; host or cells: HEK293, stably transfected
Method in brief: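 Phosphorylation ELISA (TMB, A450) after anti-C9 capture of lysates from stably transfected HEK293 cells expressing C-terminally C9-tagged human holoIR-A, serum-starved overnight in 0.1% BSA/DMEM. Percent specific response versus log concentration, from three independent runs on three days.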

[2] = target: T2, human IR-A (holoIR-A) (Homo sapiens, UniProt P06213); assay: holoIR-A competitive radioligand binding assay (scintillation proximity assay); details: for Ki: IM172N22(-) mutant peptide set; for reduction in ki for hIR-A on substitution: relative to control peptide IM172N22 devoid of N-terminal phenylacetylation; for binding of the mutant peptide to hIR-A (in words): alanine substitution in IM172N22(-)
T2 construct: expressed in transfected cells; host or cells: HEK293 (ATCC #CRL-1573), stably transfected; membrane preparation
Method in brief: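 Membranes from HEK293 cells stably expressing C9-tagged human IR-A were used in a WGA-bead SPA competition assay in 50 mM Tris-HCl pH 7.5, 150 mM NaCl, 0.1% fatty-acid-free BSA. Ten-point 3-fold dilutions were incubated 10 h at room temperature before scintillation counting. Percent specific inhibition was calculated after nonspecific-binding correction, from three independent runs.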

[3] = mean of 3 runs, read-out: hIRA Binding Ki Mean
[4] = run 1, read-out: hIRA Binding Ki Run 1
[5] = run 2, read-out: hIRA Binding Ki Run 2
[6] = run 3, read-out: hIRA Binding Ki Run 3

T2 sequence (P06213 28-1370 isoform P06213-2 limits assumed): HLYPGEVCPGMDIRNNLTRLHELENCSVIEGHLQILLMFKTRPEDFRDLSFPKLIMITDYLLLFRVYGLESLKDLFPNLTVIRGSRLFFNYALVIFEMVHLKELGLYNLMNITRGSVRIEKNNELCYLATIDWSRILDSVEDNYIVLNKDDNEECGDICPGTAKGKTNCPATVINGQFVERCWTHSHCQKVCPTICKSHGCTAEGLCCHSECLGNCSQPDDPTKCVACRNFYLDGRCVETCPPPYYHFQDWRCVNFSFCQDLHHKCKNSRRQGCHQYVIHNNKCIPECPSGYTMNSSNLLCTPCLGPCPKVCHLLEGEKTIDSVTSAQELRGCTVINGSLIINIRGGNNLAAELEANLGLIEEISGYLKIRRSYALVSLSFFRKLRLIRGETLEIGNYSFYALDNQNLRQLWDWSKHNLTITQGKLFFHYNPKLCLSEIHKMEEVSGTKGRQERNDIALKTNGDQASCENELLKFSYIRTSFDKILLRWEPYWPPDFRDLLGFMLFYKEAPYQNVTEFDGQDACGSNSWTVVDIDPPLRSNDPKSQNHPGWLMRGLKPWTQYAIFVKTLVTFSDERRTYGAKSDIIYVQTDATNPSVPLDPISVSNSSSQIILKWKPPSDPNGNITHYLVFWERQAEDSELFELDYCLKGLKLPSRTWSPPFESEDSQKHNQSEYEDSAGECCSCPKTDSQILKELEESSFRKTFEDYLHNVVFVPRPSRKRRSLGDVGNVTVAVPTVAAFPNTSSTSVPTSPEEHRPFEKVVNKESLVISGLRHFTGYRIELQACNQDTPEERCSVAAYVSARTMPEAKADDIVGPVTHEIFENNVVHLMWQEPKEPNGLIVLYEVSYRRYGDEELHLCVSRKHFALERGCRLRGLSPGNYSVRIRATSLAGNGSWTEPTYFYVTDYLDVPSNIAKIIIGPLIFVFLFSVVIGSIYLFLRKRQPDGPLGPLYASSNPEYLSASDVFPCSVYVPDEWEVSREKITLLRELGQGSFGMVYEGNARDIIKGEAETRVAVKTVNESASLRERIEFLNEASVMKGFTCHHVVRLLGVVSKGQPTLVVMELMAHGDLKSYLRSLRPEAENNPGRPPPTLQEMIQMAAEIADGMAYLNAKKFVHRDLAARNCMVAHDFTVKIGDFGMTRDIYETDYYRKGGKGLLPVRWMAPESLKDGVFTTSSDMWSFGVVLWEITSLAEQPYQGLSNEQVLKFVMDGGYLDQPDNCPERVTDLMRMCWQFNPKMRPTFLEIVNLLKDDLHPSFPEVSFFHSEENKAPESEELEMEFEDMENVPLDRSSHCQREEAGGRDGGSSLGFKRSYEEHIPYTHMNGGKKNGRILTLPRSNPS
T2 sequence (P06213 763-1382 partner limits assumed): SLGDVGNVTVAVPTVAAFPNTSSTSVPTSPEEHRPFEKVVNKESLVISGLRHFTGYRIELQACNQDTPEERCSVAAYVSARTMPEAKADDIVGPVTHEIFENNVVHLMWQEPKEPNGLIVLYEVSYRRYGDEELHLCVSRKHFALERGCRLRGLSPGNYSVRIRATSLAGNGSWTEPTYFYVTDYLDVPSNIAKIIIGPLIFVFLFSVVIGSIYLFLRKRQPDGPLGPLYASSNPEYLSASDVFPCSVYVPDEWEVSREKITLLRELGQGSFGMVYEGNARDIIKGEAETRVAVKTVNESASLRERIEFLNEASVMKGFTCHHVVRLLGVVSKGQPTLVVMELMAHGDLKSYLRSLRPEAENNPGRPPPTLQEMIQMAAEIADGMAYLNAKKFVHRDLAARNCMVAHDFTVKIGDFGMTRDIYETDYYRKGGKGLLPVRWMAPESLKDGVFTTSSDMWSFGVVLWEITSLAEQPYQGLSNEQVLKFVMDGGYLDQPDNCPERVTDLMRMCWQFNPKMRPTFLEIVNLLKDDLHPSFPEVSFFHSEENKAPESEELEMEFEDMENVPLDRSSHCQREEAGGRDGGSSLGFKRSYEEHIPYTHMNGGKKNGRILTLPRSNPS
T1 sequence (P06213 28-1370 isoform P06213-2 limits assumed): as the sequence (P06213 28-1370 isoform P06213-2 limits assumed) above
T1 sequence (P06213 763-1382 partner limits assumed): as the sequence (P06213 763-1382 partner limits assumed) above

Row | SMILES | hIRA Phosph IC50 Run 1 [1] | hIRA Phosph IC50 Run 2 [1] | hIRA Phosph IC50 Run 3 [1] | IC50 [1] | Ki [2, 3] | Ki [2, 4] | Ki [2, 5] | Ki [2, 6] | reduction in ki for hIR-A on substitution [2] | binding of the mutant peptide to hIR-A (in words) [2]
1 | CC[C@H](C)[C@H](NC(=O)[C@H](CCC(N)=O)NC(=O)[C@H](C)NC(=O)[C@H](Cc1c[nH]c2ccccc12)NC(=O)[C@H](CCC(=O)O)NC(=O)[C@H](CCC(=O)O)NC(=O)[C@H](CCC(=O)O)NC(=O)[C@H](CC(C)C)NC(=O)[C@H](CO)NC(C)=O)C(=O)N[C@@H](CCC(=O)O)C(=O)N[C@H]1CSSC[C@@H](C(=O)N2CCC[C@H]2C(=O)N2CCC[C@H]2C(=O)N[C@@H](CO)C(=O)N[C@@H](CCC(=O)O)C(=O)N[C@@H](CO)C(N)=O)NC(=O)[C@H](CCC(=O)O)NC(=O)CNC(=O)[C@H](Cc2ccc(O)cc2)NC(=O)[C@H](C(C)C)NC(=O)[C@H](CCC(=O)O)NC1=O [Peptide R16E] (Ac-SLEEEWAQIECEVYGECPPSES-NH2; disulfide 11-17) | 1117 nM | 1161 nM | 1465 nM | 1250 nM | 167 nM | 145 nM | 184 nM | 172 nM | – | –
2 | CC[C@H](C)[C@H](NC(=O)[C@H](CCC(N)=O)NC(=O)[C@H](C)NC(=O)[C@H](Cc1c[nH]c2ccccc12)NC(=O)[C@H](CCC(=O)O)NC(=O)[C@H](CCC(=O)O)NC(=O)[C@H](CCC(=O)O)NC(=O)[C@H](CC(C)C)NC(=O)[C@H](CO)NC(C)=O)C(=O)N[C@@H](CCC(=O)O)C(=O)N[C@H]1CSSC[C@@H](C(=O)N2CCC[C@H]2C(=O)N2CCC[C@H]2C(=O)N[C@@H](CO)C(=O)N[C@@H](CCC(=O)O)C(=O)N[C@@H](CO)C(N)=O)NC(=O)[C@H](CCCNC(=N)N)NC(=O)CNC(=O)[C@H](Cc2ccc(O)cc2)NC(=O)[C@H](C)NC(=O)[C@H](CCC(=O)O)NC1=O [Peptide V13A] (Ac-SLEEEWAQIECEAYGRCPPSES-NH2; disulfide 11-17) | 2321 nM | 2401 nM | 2832 nM | 2520 nM | 215 nM | 203 nM | 265 nM | 177 nM | – | –
3 | CC[C@H](C)[C@H](NC(=O)[C@H](CCC(N)=O)NC(=O)[C@H](C)NC(=O)[C@H](C)NC(=O)[C@H](CCC(=O)O)NC(=O)[C@H](CCC(=O)O)NC(=O)[C@H](CCC(=O)O)NC(=O)[C@H](CC(C)C)NC(=O)[C@H](CO)NC(C)=O)C(=O)N[C@@H](CCC(=O)O)C(=O)N[C@H]1CSSC[C@@H](C(=O)N2CCC[C@H]2C(=O)N2CCC[C@H]2C(=O)N[C@@H](CO)C(=O)N[C@@H](CCC(=O)O)C(=O)N[C@@H](CO)C(N)=O)NC(=O)[C@H](CCCNC(=N)N)NC(=O)CNC(=O)[C@H](Cc2ccc(O)cc2)NC(=O)[C@H](C(C)C)NC(=O)[C@H](CCC(=O)O)NC1=O [Peptide W6A] (Ac-SLEEEAAQIECEVYGRCPPSES-NH2; disulfide 11-17) | >10000 nM | >10000 nM | >10000 nM | > 10000 nM | > 4240 nM | > 1210 nM | > 4160 nM | > 4240 nM | – | no detectable binding
4 | CC[C@H](C)[C@H](NC(=O)[C@H](CCC(N)=O)NC(=O)[C@H](C)NC(=O)[C@H](Cc1c[nH]c2ccccc12)NC(=O)[C@H](CCC(=O)O)NC(=O)[C@H](CCC(=O)O)NC(=O)[C@H](CCC(=O)O)NC(=O)[C@H](CC(C)C)NC(=O)[C@H](CO)NC(C)=O)C(=O)N[C@@H](CCC(=O)O)C(=O)N[C@H]1CSSC[C@@H](C(=O)N2CCC[C@H]2C(=O)N2CCC[C@H]2C(=O)N[C@@H](CO)C(=O)N[C@@H](CCC(=O)O)C(=O)N[C@@H](CO)C(N)=O)NC(=O)[C@H](CCCNC(=N)N)NC(=O)CNC(=O)[C@H](C)NC(=O)[C@H](C(C)C)NC(=O)[C@H](CCC(=O)O)NC1=O [Peptide Y14A] (Ac-SLEEEWAQIECEVAGRCPPSES-NH2; disulfide 11-17) | >10000 nM | >10000 nM | >10000 nM | > 10000 nM | > 4240 nM | > 1210 nM | > 4160 nM | > 4240 nM | – | no detectable binding

Stronger by IC50 [1], values ahead:

Row | hIRA Phosph IC50 Run 1 [1] | hIRA Phosph IC50 Run 2 [1] | hIRA Phosph IC50 Run 3 [1] | IC50 [1] | Ki [2, 3] | Ki [2, 4] | Ki [2, 5] | Ki [2, 6] | reduction in ki for hIR-A on substitution [2] | binding of the mutant peptide to hIR-A (in words) [2] | SMILES
5 | 119 nM | 127 nM | 121 nM | 122 nM | 9.1 nM | 8.71 nM | 8.06 nM | 10.5 nM | lower than 5 fold | – | CC[C@H](C)[C@H](NC(=O)[C@H](CCC(N)=O)NC(=O)[C@H](C)NC(=O)[C@H](Cc1c[nH]c2ccccc12)NC(=O)[C@H](CCC(=O)O)NC(=O)[C@H](CCC(=O)O)NC(=O)[C@H](CCC(=O)O)NC(=O)[C@H](CC(C)C)NC(=O)[C@H](C)NC(C)=O)C(=O)N[C@@H](CCC(=O)O)C(=O)N[C@H]1CSSC[C@@H](C(=O)N2CCC[C@H]2C(=O)N2CCC[C@H]2C(=O)N[C@@H](CO)C(=O)N[C@@H](CCC(=O)O)C(=O)N[C@@H](CO)C(N)=O)NC(=O)[C@H](CCCNC(=N)N)NC(=O)CNC(=O)[C@H](Cc2ccc(O)cc2)NC(=O)[C@H](C(C)C)NC(=O)[C@H](CCC(=O)O)NC1=O [Peptide S1A] (Ac-ALEEEWAQIECEVYGRCPPSES-NH2; disulfide 11-17)
6 | 53 nM | 40 nM | 53 nM | 48.5 nM | 5.4 nM | 4.72 nM | 5.70 nM | 5.77 nM | lower than 5 fold | – | CC[C@H](C)[C@H](NC(=O)[C@H](CCC(N)=O)NC(=O)[C@H](C)NC(=O)[C@H](Cc1c[nH]c2ccccc12)NC(=O)[C@H](CCC(=O)O)NC(=O)[C@H](CCC(=O)O)NC(=O)[C@H](CCC(=O)O)NC(=O)[C@H](CC(C)C)NC(=O)[C@H](CO)NC(C)=O)C(=O)N[C@@H](CCC(=O)O)C(=O)N[C@H]1CSSC[C@@H](C(=O)N2CCC[C@H]2C(=O)N2CCC[C@H]2C(=O)N[C@@H](C)C(=O)N[C@@H](CCC(=O)O)C(=O)N[C@@H](CO)C(N)=O)NC(=O)[C@H](CCCNC(=N)N)NC(=O)CNC(=O)[C@H](Cc2ccc(O)cc2)NC(=O)[C@H](C(C)C)NC(=O)[C@H](CCC(=O)O)NC1=O [Peptide S20A] (Ac-SLEEEWAQIECEVYGRCPPAES-NH2; disulfide 11-17)
7 | 78 nM | 103 nM | 88 nM | 89.8 nM | 16.2 nM | 14.6 nM | 16.1 nM | 17.8 nM | lower than 5 fold | – | CC[C@H](C)[C@H](NC(=O)[C@H](CCC(N)=O)NC(=O)[C@H](C)NC(=O)[C@H](Cc1c[nH]c2ccccc12)NC(=O)[C@H](CCC(=O)O)NC(=O)[C@H](CCC(=O)O)NC(=O)[C@H](CCC(=O)O)NC(=O)[C@H](CC(C)C)NC(=O)[C@H](CO)NC(C)=O)C(=O)N[C@@H](CCC(=O)O)C(=O)N[C@H]1CSSC[C@@H](C(=O)N2CCC[C@H]2C(=O)N2CCC[C@H]2C(=O)N[C@@H](CO)C(=O)N[C@@H](CCC(=O)O)C(=O)N[C@@H](C)C(N)=O)NC(=O)[C@H](CCCNC(=N)N)NC(=O)CNC(=O)[C@H](Cc2ccc(O)cc2)NC(=O)[C@H](C(C)C)NC(=O)[C@H](CCC(=O)O)NC1=O [Peptide S22A] (Ac-SLEEEWAQIECEVYGRCPPSEA-NH2; disulfide 11-17)
